Reference: patent publication EP4803511A1, “SMALL MOLECULE COMPOUND HAVING SULFONIC ACID OR SULFINIC ACID LACTONE STRUCTURE, COMPOSITION AND USE THEREOF” (Hangzhou Phecdamed Co., Ltd., priority 2023, dated 2025)

Legend:
[1] = system: EP2; assay: EP2 gene expression in HaCaT after UVB radiation (q-PCR); format: cell-based, human; conditions: UVB 80 mJ/cm^2, 24 hrs, dose-dependent
Text: (§1) In the following Test Examples 6-1 and 6-2, using immortalized keratinocytes (HaCaT) and UVB to establish a model, after the compound to be test was applied to HaCaT, the expression levels of TNF-α, IL-8, IL-1β and EP2 were detected; using immortalized keratinocytes (HaCaT) and capsaicin to establish a model, after the compound to be test was applied to HaCaT, the expression level of TRPV1 was detected, so as to evaluate the soothing effect of the test substance from multiple dimensions.
(§2) • 1) Cell inoculation: HaCaT cells were inoculated into a 6-well plate at 6×10^5/well, cultured in an incubator (37°C, 5% CO2) for 12 hrs, and a normal control group (0 mJ/cm^2 + vehicle control), a model control group (80 mJ/cm^2 + vehicle control), a low concentration group (80 mJ/cm^2 + low concentration compound), a medium concentration group (80 mJ/cm^2 + medium concentration compound), and a high concentration group (80 mJ/cm^2 + high concentration compounds) were respectively provided. • 2) UVB modeling: The HaCaT cells were washed 3 times with D'Hanks before UVB radiation, 1 mL of D'Hanks was added into the wells, to make the cells to be immersed, and the control group was coated with tinfoil and placed in the dark. […]

[2] = system: HaCaT cells; assay: ROS content / ROS scavenging rate in HaCaT after UVB radiation (DCFH-DA); format: cell-based, human; conditions: for ROS scavenging rate: HaCaT cells after UVB radiation
Text: Oxidative reactions such as respiration and metabolism in organisms generate reactive free radicals. Under normal bodily conditions, free radicals have a stable scavenging system, so that the free radical content of the body is kept at a relatively low concentration. Oxidative stress (OS) refers to an imbalance between oxidation and antioxidation in the body due to endogenous and/or exogenous stimuli, resulting in excessive free radical production. Excessive free radicals produce a series of negative effects in the body, including oxidative damage to biomolecules and further causing cell death and tissue damage, etc. In organisms, almost all ROS, except for trace amounts utilized by the body, should be promptly scavenged. Medium Wave Erythema Effect Ultraviolet (UVB) (280-319 nm) radiation damage is the most important factor leading to photoaging of the skin, primarily damaging keratinocytes (HaCaT), specifically manifested as the accumulation of photoproducts, increased ROS, and exacerbated oxidative damage, etc. Over long periods of evolution, organisms have developed a complete antioxidant system, maintaining a dynamic balance between the production and elimination of free radicals. This is an adaptive mechanism of organisms, and the main members include antioxidant enzymes, antioxidants, and proteins that separate transition metals, all of which can specifically limit oxidative damage to the body. Therefore, the antioxidant efficacy of a test compound can be evaluated by detecting the ROS scavenging rate in keratinocytes after UVB radiation.
• 1) Cell inoculation: HaCaT cells were inoculated into a 96-well plate at 2 × 10^4/well, cultured in an incubator (37 °C, 5% CO2) for 12 hrs, and a control group (120 mJ/cm^2 + vehicle control), a low concentration group (120 mJ/cm^2 + low concentration compound), a medium concentration group (120 mJ/cm^2 + medium concentration compound), and a high concentration group (120 mJ/cm^2 + high concentration compound) were respectively provided. • 2) UVB modeling: The HaCaT cells were washed 3 times with D'Hanks before UVB radiation, 50 µL of D'Hanks was added into the wells, to make the cells to be immersed, and the control group was coated with tinfoil and placed in the dark. For the test groups, UVB modeling was performed on the group requiring radiation, respectively. • 3) Administration: DMEM medium containing different concentrations of compound were added to each test group for continued culture for 24 hrs. • 4) Transferring the ROS fluorescent probe: DCFH-DA was Diluted to a final concentration of 10 µmol/L using PBS at a dilution ratio of 1:1000. The culture medium in all wells except the bare cell wells was discarded. After washing three times with PBS, 200 µL of DCFH-DA working solution was added to each well, then incubated in a CO2 incubator for 30 min, and after incubation, the cells in each well were washed with PBS for 3 times. • 5) Fluorescence analysis. The 96-well plate to be tested was placed on the detection stage of the fluorescence microplate reader, with the […] set to 525 nm, the excitation light wavelength set to 488 nm, and the reading was analyzed.
ROS scavenging rate (%) = (S(Modelcontrolgroup)−S(Samplegroup))/(S(Modelcontrolgroup)) × 100% [formula] wherein S is fluorescence intensity.

[3] = system: COL3A1; assay: Collagen III gene expression in HaCaT human immortalized keratinocytes; format: cell-based; conditions: 24 hrs, dose-dependent
Text: Skin fragility is partly attributed to changes in hemidesmosomes and the expression downregulation of various collagen proteins (Collagen I, III, IV, VII) or laminins (such as LN-5) at the dermal-epidermal junction. LN-5 has been proven to be a component of anchoring fibers in the basement membrane of the skin, cornea, conjunctiva, and other tissues. LN-5 participates in cell-cell interactions through the mediation of integrins and proteoglycans, thereby playing a crucial role in cell adhesion, growth, migration, and differentiation. The appearance of wrinkles is closely related to the normal synthesis and expression of collagen and laminins. Therefore, the increase of the above collagen content and LN-5 can achieve a certain role in resisting wrinkles, and plays an important role in the aging process of the skin. Therefore, the anti-wrinkle effect of the compound to be tested was evaluated by detecting the level of Collage I protein of […] by ELISA, and detecting the transcription levels of epidermal cells (keratinocytes) III, IV, VII and LN -5 by Real-Time PCR. The following Test Examples 8-1 and 8-2 evaluated the anti-wrinkle efficacy of compounds using HaCaT human immortalized keratinocytes and HSF human skin fibroblasts. […]

[4] = system: IL-1β; assay: IL-1β gene expression in HaCaT after UVB radiation (q-PCR); format: cell-based, human; conditions: UVB 80 mJ/cm^2, 24 hrs, dose-dependent
Text: as §1, §2

**Q.** O=S1(=O)Oc2cc(O)ccc2-c2ccc(O)cc21 [Compound I-8] was tested. Which “expression level of EP2” value [1] did it give?
**A.** downregulating

**Q.** What about the “ROS content in HaCaT after UVB radiation” value ([2]; HaCaT, UVB 120 mJ/cm^2, 24 hrs, low, medium, high concentration) of the same compound?
**A.** scavenging ROS in a dose-dependent manner

**Q.** And the ROS scavenging rate ([2]; content 0.00015625%)?
**A.** 12%

**Q.** And the ROS scavenging rate ([2]; content 0.000625%)?
**A.** 22%

**Q.** And the ROS scavenging rate ([2]; content 0.0025%)?
**A.** 26%

**Q.** And the COL341 gene expression [3]?
**A.** upregulate

**Q.** What about the “expression level of IL-1β” value [4] of the same compound?
**A.** downregulating
